Reference: ChEMBL document CHEMBL1697731, “Cheminformatics analysis of assertions mined from literature that describe drug-induced liver injury in different species” (Chem Res Toxicol, 2010)

Legend:
Hepatotoxicity [1] = experiment: Literature-mined compound from Fourches et al multi-species drug-induced liver injury (DILI) dataset, effect in humans; conditions: human
Hepatotoxicity [2] = experiment: Literature-mined compound from Fourches et al multi-species drug-induced liver injury (DILI) dataset, effect in rodents; conditions: rodentia
Hepatotoxicity [3] = experiment: Literature-mined compound from Fourches et al multi-species drug-induced liver injury (DILI) dataset, effect in non-rodents

Structure (SMILES)	Hepatotoxicity (Hepatotoxicity [1])	Hepatotoxicity (Hepatotoxicity [2])	Hepatotoxicity (Hepatotoxicity [3])	Hepatotoxicity (Hepatotoxicity [1]; Liver)	Hepatotoxicity (Hepatotoxicity [2]; Liver)	Hepatotoxicity (Hepatotoxicity [3]; Liver)
OC[C@H]1O[C@@](CO)(O[C@H]2O[C@H](CO)[C@@H](O)[C@H](O)[C@H]2O)[C@@H](O)[C@@H]1O [SUCROSE]	no drug-induced liver injury reported	drug-induced liver injury reported	drug-induced liver injury reported	–	–	–
C[C@]12C=CC(=O)C=C1CC[C@@H]1[C@@H]2[C@@H](O)C[C@@]2(C)[C@H]1CC[C@]2(O)C(=O)CO [PREDNISOLONE]	drug-induced liver injury reported	drug-induced liver injury reported	no drug-induced liver injury reported	–	–	–
CC1=C(/C=C/C(C)=C/C=C/C(C)=C/CO)C(C)(C)CCC1 [RETINOL]	–	–	–	drug-induced liver injury reported	drug-induced liver injury reported	drug-induced liver injury reported
CC(=O)O[C@H](CC(=O)[O-])C[N+](C)(C)C [ACETYLCARNITINE]	no drug-induced liver injury reported	drug-induced liver injury reported	no drug-induced liver injury reported	–	–	–
O=C(CCCCC(=O)Nc1c(I)cc(I)c(C(=O)O)c1I)Nc1c(I)cc(I)c(C(=O)O)c1I [IODIPAMIDE]	no drug-induced liver injury reported	drug-induced liver injury reported	drug-induced liver injury reported	–	–	–
CNC(=O)[C@H]1O[C@@H](n2cnc3c(NCc4cccc(I)c4)ncnc32)[C@H](O)[C@@H]1O [IB-MECA]	no drug-induced liver injury reported	drug-induced liver injury reported	no drug-induced liver injury reported	–	–	–
CC(C)Cc1ccc(C(C)C(=O)O)cc1 (centres undefined) [IBUPROFEN]	drug-induced liver injury reported	drug-induced liver injury reported	no drug-induced liver injury reported	–	–	–
C[Se]CC[C@H](N)C(=O)O [SELENOMETHIONINE]	no drug-induced liver injury reported	drug-induced liver injury reported	drug-induced liver injury reported	–	–	–
CC1(C)C(C=C(Cl)Cl)C1C(=O)OCc1cccc(Oc2ccccc2)c1 (centres undefined) [PERMETHRIN]	no drug-induced liver injury reported	drug-induced liver injury reported	no drug-induced liver injury reported	–	–	–
CC/C=C\C/C=C\C/C=C\C/C=C\C/C=C\C/C=C\CCC(=O)O [DOCONEXENT]	drug-induced liver injury reported	drug-induced liver injury reported	no drug-induced liver injury reported	–	–	–
CC[C@H](c1ccc(O)cc1)[C@@H](CC)c1ccc(O)cc1 [HEXESTROL]	no drug-induced liver injury reported	drug-induced liver injury reported	no drug-induced liver injury reported	–	–	–
COc1cc(NS(=O)(=O)c2ccc(N)cc2)nc(OC)n1 [SULFADIMETHOXINE]	drug-induced liver injury reported	no drug-induced liver injury reported	no drug-induced liver injury reported	–	–	–
CN1[C@@H]2CC[C@H]1C[C@@H](OC(=O)C(CO)c1ccccc1)C2 (mixture of isomers) [ATROPINE]	–	–	–	no drug-induced liver injury reported	drug-induced liver injury reported	no drug-induced liver injury reported
